Test results published in PMC10504751, “Chalcone/1,3,4-Oxadiazole/Benzimidazole hybrids as novel anti-proliferative agents inducing apoptosis and inhibiting EGFR & BRAFV^600E” (BMC Chemistry, 2023).
Read-outs that look alike come from different tables or passages of the source.

Tests used:
Assay in all cases: NCI one-dose SRB anti-proliferative screen
Assay type in all cases: cell-based
786-0 = settings: Homo sapiens, read-out: Cell growth inhibition %
How it was run: (§1)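 One concentration (10 µM) was used per compound. Proliferation was assessed using the sulforhodamine B colorimetric method across sixty lines grouped into nine cancer subpanels.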

A498 = settings: Homo sapiens, read-out: Cell growth inhibition %
How it was run: as §1

ACHN = settings: Homo sapiens, read-out: Cell growth inhibition %
How it was run: as §1

CAKI-1 = settings: Homo sapiens, read-out: Cell growth inhibition %
How it was run: as §1

DU-145 = settings: Homo sapiens, read-out: Cell growth inhibition %
How it was run: as §1

HCC-2998 = settings: Homo sapiens, read-out: Cell growth inhibition %
How it was run: as §1

HL-60(TB) = settings: Homo sapiens, read-out: Cell growth inhibition %
How it was run: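 Activity reflects a single-point exposure at 10 µM, with cell mass determined by a sulforhodamine B dye assay.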

HOP-92 = settings: Homo sapiens, read-out: Cell growth inhibition %
How it was run: as §1

HT29 = settings: Homo sapiens, HT-29, read-out: Cell growth inhibition %
How it was run: as §1

KM12 = settings: Homo sapiens, read-out: Cell growth inhibition %
How it was run: as §1

LOX IMVI = settings: Homo sapiens; for inhibition at 10 µM: read-out: Cell growth inhibition %
How it was run: as §1

MDA-MB-231/ATCC = settings: Homo sapiens, read-out: Cell growth inhibition %
How it was run: as §1

MDA-MB-468 = settings: Homo sapiens, read-out: Cell growth inhibition %
How it was run: as §1

NCI-H226 = settings: Homo sapiens, read-out: Cell growth inhibition %
How it was run: as §1

NCI-H23 = settings: Homo sapiens, read-out: Cell growth inhibition %
How it was run: as §1

NCI-H322M = settings: Homo sapiens, read-out: Cell growth inhibition %
How it was run: as §1

NCI-H460 = settings: Homo sapiens, read-out: Cell growth inhibition %
How it was run: as §1

NCI/ADR-RES = settings: Homo sapiens, read-out: Cell growth inhibition %
How it was run: as §1

OVCAR-3 = settings: Homo sapiens, read-out: Cell growth inhibition %
How it was run: as §1

OVCAR-4 = settings: Homo sapiens, read-out: Cell growth inhibition %
How it was run: as §1

SF-268 = settings: Homo sapiens, read-out: Cell growth inhibition %
How it was run: as §1

SF-295 = settings: Homo sapiens, read-out: Cell growth inhibition %
How it was run: as §1

SF-539 = settings: Homo sapiens, read-out: Cell growth inhibition %
How it was run: as §1

SK-MEL-5 = settings: Homo sapiens, read-out: Cell growth inhibition %
How it was run: as §1

SNB-19 = settings: Homo sapiens, read-out: Cell growth inhibition %
How it was run: as §1

SR = settings: Homo sapiens, read-out: Cell growth inhibition %
How it was run: as §1

SW-620 = settings: Homo sapiens, read-out: Cell growth inhibition %
How it was run: as §1

TK-10 = settings: Homo sapiens, read-out: Cell growth inhibition %
How it was run: as §1

U251 = settings: Homo sapiens, U-251, read-out: Cell growth inhibition %
How it was run: as §1

[1] = 786-0, Renal cancer, NCI one dose
[2] = A498, Renal cancer, NCI one dose
[3] = ACHN, Renal cancer, NCI one dose
[4] = CAKI-1, Renal cancer, NCI one dose
[5] = DU-145, Prostate Cancer, NCI one dose
[6] = HCC-2998, Colon cancer, NCI one dose
[7] = HL-60(TB), Leukemia, NCI one dose
[8] = HOP-92, Non-Small Cell Lung Cancer, NCI one dose
[9] = HT29, Colon cancer, NCI one dose
[10] = KM12, Colon cancer, NCI one dose
[11] = MDA-MB-231/ATCC, Breast cancer, NCI one dose
[12] = MDA-MB-468, Breast cancer, NCI one dose
[13] = NCI-H226, Non-Small Cell Lung Cancer, NCI one dose
[14] = NCI-H23, Non-Small Cell Lung Cancer, NCI one dose
[15] = NCI-H322M, Non-Small Cell Lung Cancer, NCI one dose
[16] = NCI-H460, Non-Small Cell Lung Cancer, NCI one dose
[17] = NCI/ADR-RES, Ovarian Cancer, NCI one dose
[18] = OVCAR-3, Ovarian Cancer, NCI one dose
[19] = OVCAR-4, Ovarian Cancer, NCI one dose
[20] = SF-268, CNS Cancer, NCI one dose
[21] = SF-295, CNS Cancer, NCI one dose
[22] = SF-539, CNS Cancer, NCI one dose
[23] = SK-MEL-5, Melanoma, NCI one dose
[24] = SNB-19, CNS Cancer, NCI one dose
[25] = SW-620, Colon cancer, NCI one dose
[26] = TK-10, Renal cancer, NCI one dose

Structure (SMILES): COc1ccc(/C=C/C(=O)c2ccc(NC(=O)CSc3nnc(-c4ccc5[nH]c(-c6ccc(OC)cc6)nc5c4)o3)cc2)cc1 [Compound 7m, 2-{5-[2-(4-Methoxyphenyl)-1 H-benzo[d]imidazol-5-yl]-1,3,4-oxadiazol-2-ylthio}-N-{4-[(E)-3-(4-methoxyphenyl)acryloyl]phenyl}acetamide]
- inhibition at 10 µM (786-0; [1]): 0%
- inhibition at 10 µM (A498; [2]): 0%
- inhibition at 10 µM (ACHN; [3]): 0%
- inhibition at 10 µM (CAKI-1; [4]): 6.15%
- inhibition at 10 µM (DU-145; [5]): 0%
- inhibition at 10 µM (HCC-2998; [6]): 0%
- inhibition at 10 µM (HL-60(TB); [7]): 21.9%
- inhibition at 10 µM (HOP-92; [8]): 18.9%
- inhibition at 10 µM (HT29; [9]): 0%
- inhibition at 10 µM (KM12; [10]): 3.51%
- inhibition at 10 µM (LOX IMVI; Melanoma, NCI one dose): 81.5%
- inhibition at 10 µM (MDA-MB-231/ATCC; [11]): 9.52%
- inhibition at 10 µM (MDA-MB-468; [12]): 0%
- inhibition at 10 µM (NCI-H226; [13]): 16%
- inhibition at 10 µM (NCI-H23; [14]): 9.57%
- inhibition at 10 µM (NCI-H322M; [15]): 3.18%
- inhibition at 10 µM (NCI-H460; [16]): 1.44%
- inhibition at 10 µM (NCI/ADR-RES; [17]): 0%
- inhibition at 10 µM (OVCAR-3; [18]): 3.65%
- inhibition at 10 µM (OVCAR-4; [19]): 6.89%
- inhibition at 10 µM (SF-268; [20]): 5.02%
- inhibition at 10 µM (SF-295; [21]): 2.1%
- inhibition at 10 µM (SF-539; [22]): 18%
- inhibition at 10 µM (SK-MEL-5; [23]): 22.2%
- inhibition at 10 µM (SNB-19; [24]): 3.7%
- inhibition at 10 µM (SR; SR, Leukemia, NCI one dose): 40.5%
- inhibition at 10 µM (SW-620; [25]): 2%
- inhibition at 10 µM (TK-10; [26]): 0%
- inhibition at 10 µM (U251; U251, CNS Cancer, NCI one dose): 15.9%

Structure (SMILES): O=C(CSc1nnc(-c2ccc3[nH]c(-c4ccccc4)nc3c2)o1)Nc1ccc(C(=O)/C=C/c2ccc(Cl)cc2)cc1 [Compound 7b, 2-{5-[2-Phenyl-1 H-benzo[d]imidazol-5-yl]-1,3,4-oxadiazol-2-ylthio}-N-{4-[(E)-3-(4-chlorophenyl)acryloyl]phenyl}acetamide]
- inhibition at 10 µM (786-0; [1]): 2.96%
- inhibition at 10 µM (A498; [2]): 6.84%
- inhibition at 10 µM (ACHN; [3]): 0%
- inhibition at 10 µM (CAKI-1; [4]): 1.52%
- inhibition at 10 µM (DU-145; [5]): 0%
- inhibition at 10 µM (HCC-2998; [6]): 0%
- inhibition at 10 µM (HL-60(TB); [7]): 0%
- inhibition at 10 µM (HOP-92; [8]): 0%
- inhibition at 10 µM (HT29; [9]): 0%
- inhibition at 10 µM (KM12; [10]): 0%
- inhibition at 10 µM (LOX IMVI; Melanoma, NCI one dose): 12.9%
- inhibition at 10 µM (MDA-MB-231/ATCC; [11]): 4.03%
- inhibition at 10 µM (MDA-MB-468; [12]): 0%
- inhibition at 10 µM (NCI-H226; [13]): 3.63%
- inhibition at 10 µM (NCI-H23; [14]): 0%
- inhibition at 10 µM (NCI-H322M; [15]): 0%
- inhibition at 10 µM (NCI-H460; [16]): 0%
- inhibition at 10 µM (NCI/ADR-RES; [17]): 0%
- inhibition at 10 µM (OVCAR-3; [18]): 0%
- inhibition at 10 µM (OVCAR-4; [19]): 0%
- inhibition at 10 µM (SF-268; [20]): 0%
- inhibition at 10 µM (SF-295; [21]): 0%
- inhibition at 10 µM (SF-539; [22]): 4.06%
- inhibition at 10 µM (SK-MEL-5; [23]): 3.35%
- inhibition at 10 µM (SNB-19; [24]): 3.92%
- inhibition at 10 µM (SR; SR, Leukemia, NCI one dose): 3.59%
- inhibition at 10 µM (SW-620; [25]): 0%
- inhibition at 10 µM (TK-10; [26]): 0%
- inhibition at 10 µM (U251; U251, CNS Cancer, NCI one dose): 7.14%

Structure (SMILES): COc1ccc(/C=C/C(=O)c2ccc(NC(=O)CSc3nnc(-c4ccc5[nH]c(-c6ccc(Cl)cc6)nc5c4)o3)cc2)cc1 [Compound 7h, 2-{5-[2-(4-Chlorophenyl)-1 H-benzo[d]imidazol-5-yl]-1,3,4-oxadiazol-2-ylthio}-N-{4-[(E)-3-(4-methoxyphenyl)acryloyl]phenyl}acetamide]
- inhibition at 10 µM (786-0; 786-0 (Renal Cancer), NCI one dose 10 µM): 0.41%
- inhibition at 10 µM (A498; A498 (Renal Cancer), NCI one dose 10 µM): 0%
- inhibition at 10 µM (ACHN; ACHN (Renal Cancer), NCI one dose 10 µM): 0%
- inhibition at 10 µM (CAKI-1; CAKI-1 (Renal Cancer), NCI one dose 10 µM): 2.63%
- inhibition at 10 µM (DU-145; DU-145 (Prostate Cancer), NCI one dose 10 µM): 0%
- inhibition at 10 µM (HCC-2998; HCC-2998 (Colon Cancer), NCI one dose 10 µM): 0%
- inhibition at 10 µM (HL-60(TB); HL-60(TB) (Leukemia), NCI one dose 10 µM): 21.4%
- inhibition at 10 µM (HOP-92; HOP-92 (Non-Small Cell Lung Cancer), NCI one dose 10 µM): 0%
- inhibition at 10 µM (HT29; HT29 (Colon Cancer), NCI one dose 10 µM): 0%
- inhibition at 10 µM (KM12; KM12 (Colon Cancer), NCI one dose 10 µM): 0.3%
- inhibition at 10 µM (LOX IMVI; LOX IMIV (Melanoma), NCI one dose 10 µM): 93.2%
- activity at 10 µM (LOX IMVI; LOX IMVI (Melanoma), 10 µM one dose, read-out: Growth Percent): -32 to 18%
- inhibition at 10 µM (MDA-MB-231/ATCC; MDA-MB-231/ATCC (Breast Cancer), NCI one dose 10 µM): 1.61%
- inhibition at 10 µM (MDA-MB-468; MDA-MB-468 (Breast Cancer), NCI one dose 10 µM): 0%
- inhibition at 10 µM (NCI-H226; NCI-H226 (Non-Small Cell Lung Cancer), NCI one dose 10 µM): 12.4%
- inhibition at 10 µM (NCI-H23; NCI-H23 (Non-Small Cell Lung Cancer), NCI one dose 10 µM): 6%
- inhibition at 10 µM (NCI-H322M; NCI-H322M (Non-Small Cell Lung Cancer), NCI one dose 10 µM): 0%
- inhibition at 10 µM (NCI-H460; NCI-H460 (Non-Small Cell Lung Cancer), NCI one dose 10 µM): 0%
- inhibition at 10 µM (NCI/ADR-RES; NCI/ADR-RES (Ovarian Cancer), NCI one dose 10 µM): 0%
- inhibition at 10 µM (OVCAR-3; OVCAR-3 (Ovarian Cancer), NCI one dose 10 µM): 0%
- inhibition at 10 µM (OVCAR-4; OVCAR-4 (Ovarian Cancer), NCI one dose 10 µM): 0%
- inhibition at 10 µM (SF-268; SF-268 (CNS Cancer), NCI one dose 10 µM): 0%
- inhibition at 10 µM (SF-295; SF-295 (CNS Cancer), NCI one dose 10 µM): 0%
- inhibition at 10 µM (SF-539; SF-539 (CNS Cancer), NCI one dose 10 µM): 5.67%
- inhibition at 10 µM (SK-MEL-5; SK-MEL-5 (Melanoma), NCI one dose 10 µM): 10.3%
- inhibition at 10 µM (SNB-19; SNB-19 (CNS Cancer), NCI one dose 10 µM): 0%
- inhibition at 10 µM (SR; SR (Leukemia), NCI one dose 10 µM): 19.5%
- inhibition at 10 µM (SW-620; SW-620 (Colon Cancer), NCI one dose 10 µM): 0%
- inhibition at 10 µM (TK-10; TK-10 (Renal Cancer), NCI one dose 10 µM): 0%
- inhibition at 10 µM (U251; U251 (CNS Cancer), NCI one dose 10 µM): 3.98%
